Laboratory results: paper PMC7417534, “Cytochrome P450 inhibition potential and initial genotoxic evaluation of 14-O-[(4,6-diaminopyrimidine-2-yl)thioacetyl] mutilin” (Scientific Reports, 2020)

Legend:
PPARα mRNA = PPARα mRNA expression in Hep G2 cells (real-time PCR); format: cell-based, human; details: 2, 4 and 12 h, three doses
Procedure: (§1) The logarithmic growth phase Hep G2 cells were seeded into 12-well plastic plates at a density of […]. After incubation at 37 °C under 5% CO2 for 24 h, the media were then replaced with 1 mL of serial dilutions of the DPTM (4.98, 0.16 and 0.08 mM) in fresh media. When cells were incubated for 2, 4 and 12 h at 37 °C under 5% CO2, the RNA was isolated using the Trizol reagent according to the manufacturer’s protocol. Total RNA (5 μL) was transcribed into cDNA by using the PrimeScript RT reagent Kit (Perfect Real Time). The obtained cDNA (5 μL) was added for 45 cycles of PCR amplification to detect the mRNA expression (the primers and sequences used herein were given in Table 3) using the ABI Villa TM7Dx real-time PCR system (Gaithersburg, USA). Glyceraldehyde-3-phosphate dehydrogenase (GAPDH) was used as reference gene. All reactions were performed in a final volume of 20 μL (10 μL of 2 × SYBR Green Real-time PCR Master Mix, 2 μL of cDNA and 2 μL of the primers and 6 μL DEPC water) and executed in triplicate.

CYP2D6 = molecular target: T1, CYP2D6 (Homo sapiens, UniProt P10635); test: Cocktail CYP inhibition in human liver microsomes, CYP2D6 (metoprolol); format: in vitro ADME; details: cocktail method, read-out: IC50 values, CYP2D6 in HLMs
T1 construct: containing 100 μL RLMs or HLMs; tissue Research Institute for Liver Diseases (Shanghai) Co., Ltd; host or cells: pooled human liver microsomes
T1 sequence (P10635 whole entry): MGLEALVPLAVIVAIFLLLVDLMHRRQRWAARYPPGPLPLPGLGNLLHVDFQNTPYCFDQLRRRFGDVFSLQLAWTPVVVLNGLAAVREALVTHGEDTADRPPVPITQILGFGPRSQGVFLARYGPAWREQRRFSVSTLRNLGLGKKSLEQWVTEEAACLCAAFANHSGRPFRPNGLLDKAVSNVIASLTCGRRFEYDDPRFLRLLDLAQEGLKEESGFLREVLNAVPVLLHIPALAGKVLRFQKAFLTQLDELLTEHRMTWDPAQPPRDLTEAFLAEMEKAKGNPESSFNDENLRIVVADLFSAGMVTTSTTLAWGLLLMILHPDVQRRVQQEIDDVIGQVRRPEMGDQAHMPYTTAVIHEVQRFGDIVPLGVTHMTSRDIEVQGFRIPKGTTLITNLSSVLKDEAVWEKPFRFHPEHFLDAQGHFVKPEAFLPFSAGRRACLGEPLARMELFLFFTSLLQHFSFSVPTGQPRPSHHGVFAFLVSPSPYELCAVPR
Procedure: (§2) We used the cocktail method to study the inhibition activities of DPTM against CYP enzymes in RLMs and HLMs with slight modification. DPTM (250 μmol) was dissolved in 1.25 mL methanol to a solution and then diluted with methanol and water to 2, 10, 20, 100, 200, 400, 1,000 and 2000 μM, respectively. The obtained serial dilutions (10 μL) were added to the incubation mixtures (200 μL total volume), containing 100 μL RLMs or HLMs (final concentration was 5 μg/μL, respectively), 10 μL glucose-6-phosphate (final concentration was 1 mM), 10 μL glucose-6-phosphate dehydrogenase (final concentration was 0.1 U/L), 20 μL potassium phosphate buffer (final concentration was 0.01 M) and 20 μL MgCl2 (final concentration was 2 mM), to give the final concentrations were 0.1, 0.5, 1, 5 10, 20, 50, and 100 μM, respectively. For the groups that in the absence of DPTM, 10 μL methanol (1%) replaced the DPTM and was added to the incubation mixtures. […] The final concentration of methanol in all the incubation mixtures, including the blank group, was […]. […] The determined metabolic substrates were used for calculating the relative enzyme activity (Erel) by the following formula: Erel (%) = Ci(n)/Ci(0) × 100%, in which Ci(n) was the determined metabolic substrates in the presence of varying concentrations of DPTM and Ci(0) was the determined metabolic substrates in the absence of DPTM. […]

CYP2D6 mRNA = CYP2D6 mRNA expression in Hep G2 cells (real-time PCR); format: cell-based, human; details: 12 h
Procedure: as §1

S. typhimurium TA97 = test: Ames test, strain TA97; format: cell-based, Salmonella typhimurium; details: − S9
Description: S. typhimurium strains TA97, TA98, TA100, TA102 and TA1535 were stored and maintained as provided in the standard protocol. Each of the strains was checked for their genetic integrity prior to the experiment, and tested for biotin dependence, histidine dependence, biotin and histidine dependence, rfa marker (crystal violet) and presence of the plasmid pKM101 (ampicillin resistance) or pAQ1 (tetracycline resistance). Different strains were used to identify different types of mutations.
The test was carried out at five different concentrations of DPTM. […] Then 1 mL solution was diluted with distilled water by two fold. […] The negative control used in this experiment was 1 mL DMSO which was directly incorporated into 9 mL melted top agar.
The Ames test of DPTM was conducted as described in the literatures[42],[43] with some modifications. Briefly, 1 mL of strain was inoculated into 5 mL of nutrient broth, followed by incubating overnight at 37 °C. The mixture comprised respective strains, drug, negative and positive controls with the S9 for testing in the presence of metabolic activation system. For testing without S9, 1 × phosphate buffer saline (PBS, pH 7.4) replaced the S9 mix. The obtained mixtures were added into the tube, mixed well and incubated at 37 °C for 20 min. Then, the top agar was melted and 2 mL of this melted top agar was added to each tube and gently mixed. […] The results were expressed as the number of revertant colonies per plate. The experiments were performed in triplicate.

CYP2E1 = molecular target: T2, CYP2E1 (Homo sapiens, UniProt P05181); test: Cocktail CYP inhibition in human liver microsomes, CYP2E1 (chlorzoxazone); format: in vitro ADME; details: cocktail method, read-out: IC50 values, CYP2E1 in HLMs
T2 construct: containing 100 μL RLMs or HLMs; tissue Research Institute for Liver Diseases (Shanghai) Co., Ltd; host or cells: pooled human liver microsomes
T2 sequence (P05181 whole entry): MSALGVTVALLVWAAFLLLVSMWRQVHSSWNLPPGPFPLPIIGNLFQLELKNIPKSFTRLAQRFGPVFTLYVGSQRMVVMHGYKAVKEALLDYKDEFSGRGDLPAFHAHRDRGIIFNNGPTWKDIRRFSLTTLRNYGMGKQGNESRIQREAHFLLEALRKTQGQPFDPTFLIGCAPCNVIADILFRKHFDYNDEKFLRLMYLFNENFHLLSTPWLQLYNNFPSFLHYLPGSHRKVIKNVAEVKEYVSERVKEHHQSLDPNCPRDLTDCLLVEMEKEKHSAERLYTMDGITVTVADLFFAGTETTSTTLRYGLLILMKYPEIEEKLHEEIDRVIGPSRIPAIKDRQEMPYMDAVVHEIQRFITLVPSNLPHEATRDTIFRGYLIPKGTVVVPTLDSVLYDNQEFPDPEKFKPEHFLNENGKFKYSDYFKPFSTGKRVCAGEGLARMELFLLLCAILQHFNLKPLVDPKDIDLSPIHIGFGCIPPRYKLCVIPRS
Procedure: as §2

CYP3A = test: Cocktail CYP inhibition in rat liver microsomes, CYP3A (dapsone); format: in vitro ADME; details: probe dapsone (55 μM), cocktail method, read-out: IC50 values, CYP3A in RLMs
Procedure: as §2

SMILES: C=CC1(C)CC(OC(=O)CSc2nc(N)cc(N)n2)C2(C)C(C)CCC3(CCC(=O)C32)C(C)C1O (stereo not drawn) [DPTM, 14-O-[(4,6-Diaminopyrimidine-2-yl)thioacetyl] mutilin]
- PPARα mRNA expression versus control (PPARα mRNA): significantly increase
- IC50 (CYP2D6): > 100 µM
- CYP2D6 mRNA expression versus control (CYP2D6 mRNA): significantly lowered
- revertant colonies per plate, TA97 (S. typhimurium TA97; dose 0.50 μmol/plate): 165 ± 14 CFU
- revertant colonies per plate, TA97 (S. typhimurium TA97; dose 1.00 μmol/plate): 171 ± 8 CFU
- revertant colonies per plate, TA97 (S. typhimurium TA97; dose 1.99 μmol/plate): 174 ± 17 CFU
- revertant colonies per plate, TA97 (S. typhimurium TA97; dose 3.98 μmol/plate): 169 ± 14 CFU
- IC50 (CYP2E1): 67 ± 6 µM
- IC50 at 15 min (CYP3A): 10 ± 2 µM
